Article PMC2884290 (Neuropsychopharmacology : official publication of the …, 2009)
Like-named read-outs stand apart in the source and are kept apart here.

Experiments:
[1] = target: T1, mGluR5 (Rattus norvegicus, UniProt P31424); type: cell-based
[2] = target: T1, mGluR5; test: PI hydrolysis in rat hippocampal slices

T1 sequence (P31424 21-1203): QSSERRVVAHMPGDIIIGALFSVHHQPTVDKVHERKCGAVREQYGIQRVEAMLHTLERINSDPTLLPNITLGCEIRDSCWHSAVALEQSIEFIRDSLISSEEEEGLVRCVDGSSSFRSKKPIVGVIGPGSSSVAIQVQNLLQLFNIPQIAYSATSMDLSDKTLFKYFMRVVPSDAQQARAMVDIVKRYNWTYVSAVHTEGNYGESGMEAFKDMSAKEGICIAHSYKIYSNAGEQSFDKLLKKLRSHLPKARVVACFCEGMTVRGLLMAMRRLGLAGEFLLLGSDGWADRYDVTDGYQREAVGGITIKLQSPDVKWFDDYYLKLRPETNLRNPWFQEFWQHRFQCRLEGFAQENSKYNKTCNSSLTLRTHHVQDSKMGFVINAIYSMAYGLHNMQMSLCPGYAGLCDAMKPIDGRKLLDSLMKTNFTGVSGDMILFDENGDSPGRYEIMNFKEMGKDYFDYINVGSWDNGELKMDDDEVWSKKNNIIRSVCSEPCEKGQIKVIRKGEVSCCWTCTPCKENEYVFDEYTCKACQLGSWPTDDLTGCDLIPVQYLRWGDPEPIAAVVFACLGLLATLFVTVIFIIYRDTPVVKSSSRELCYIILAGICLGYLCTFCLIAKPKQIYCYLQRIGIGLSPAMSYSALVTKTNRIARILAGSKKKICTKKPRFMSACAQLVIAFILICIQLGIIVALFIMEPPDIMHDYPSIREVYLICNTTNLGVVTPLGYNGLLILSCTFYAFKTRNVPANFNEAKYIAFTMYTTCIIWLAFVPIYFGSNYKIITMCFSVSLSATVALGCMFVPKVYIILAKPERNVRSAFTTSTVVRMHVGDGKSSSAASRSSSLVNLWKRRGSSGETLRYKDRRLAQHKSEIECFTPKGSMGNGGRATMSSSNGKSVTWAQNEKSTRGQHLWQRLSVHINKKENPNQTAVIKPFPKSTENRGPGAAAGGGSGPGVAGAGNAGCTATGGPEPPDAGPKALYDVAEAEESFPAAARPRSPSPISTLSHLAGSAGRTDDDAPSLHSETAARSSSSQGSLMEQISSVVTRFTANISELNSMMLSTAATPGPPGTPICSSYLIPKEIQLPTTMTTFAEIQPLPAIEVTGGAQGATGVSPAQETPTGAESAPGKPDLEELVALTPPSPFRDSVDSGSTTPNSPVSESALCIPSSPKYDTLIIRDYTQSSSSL

EC50 [1]	EC50 [2]	SMILES
0.108 ± 0.041 µM	–	O=C(c1ccc(F)cc1)N1CCC[C@H](c2nc(-c3ccc(F)cc3)no2)C1 [ADX47273]
–	8 ± 1.6 µM	NC(C(=O)O)c1cc(O)cc(O)c1 (centres unmarked) [DHPG]
